From patent EP0987275B1, “Molecules that home to a selected organ or tissue in vivo” (LA JOLLA CANCER RESEARCH FOUNDATION, priority 1995, dated 2008)
Where no end group is shown, it is not given here.

Key:
[1] = system: B16B15b mouse melanoma cells; assay: In vivo panning in mice bearing an implanted mouse melanoma tumor; set-up: species or system nude mice; conditions: phage recovered from B16B15b tumors; 89 cloned phage sequenced
Method: Mice bearing a melanoma were produced by implantation of B16B15b mouse melanoma cells, which produce highly vascularized tumors. B16B15b mouse melanoma cells were injected subcutaneously into the mammary fat pad of nude mice (2 months old) and tumors were allowed to grow until the diameter was about 1 cm. In vivo panning was performed as disclosed above. Approximately 1 x 10^12 transducing units of phage expressing the CX5C (SEQ ID NO: 36), CX6C (SEQ ID NO: 37) or […] library were injected, iv, and allowed to circulate for 4 min. Mice then were snap frozen in liquid nitrogen while under anesthesia, tumor tissue and brain (control organ) were removed, and phage were isolated as described above. Three rounds of in vivo panning were performed.
The amino acid sequences were determined for the inserts in 89 cloned phage recovered from the B16B15b tumors. The peptides expressed by these phage were represented by two predominant sequences, CLSGSLSC (SEQ ID NO: 55; 52% of the clones sequenced) and WGTGLC (SEQ ID NO: 52; 25% of the clones; see Table 4).

kidney = assay: In vivo panning of phage peptide display libraries, kidney as the selected organ (brain control); set-up: species or system mice; conditions: phage recovered from kidney; for (% PHAGE): % of the 48 clones sequenced; for # PHAGE DISPLAYING SAME A.A. SEQUENCE: 48 cloned phage sequenced
Method: (§1) A mixture of phage libraries containing 1 x 10^14 TU was diluted in 200 µl DMEM and injected into the tail vein of anesthetized BALB\c mice (2 month old females; Jackson Laboratories; Bar Harbor ME); Avertin™ (0.015 ml/g) was used as anesthetic (see Pasqualini and Ruoslahti, supra, 1996). After 1-4 minutes, mice were snap frozen in liquid nitrogen. To recover the phage, carcasses were partially thawed at room temperature for 1 hr, organs were collected and weighed, then were ground in 1 ml DMEM-PI (DMEM containing protease inhibitors (PI); phenylmethylsulfonyl fluoride (PMSF; 1 mM), aprotinin (20 µg/ml), leupeptin (1 µg/ml)).
(§2) Organ samples were washed 3 times with ice cold DMEM-PI containing 1% bovine serum albumin (BSA), then directly incubated with 1 ml K91-kan bacteria for 1 hr. Ten ml NZY medium containing […] tetracycline (NZY/tet) was added to the bacterial culture, the mixture was incubated in a 37°C shaker for 1 hr, then 200 µl aliquots were plated in agar plates containing 40 µg/ml tetracycline (tet/agar).
(§3) Individual colonies containing phage recovered from brain or kidney were grown for 16 hr in 5 ml NZY/tet. The bacterial cultures obtained from the individual colonies were pooled and the phage were purified and re-injected into mice as described above for a second round of in vivo panning. A third round of panning also was performed. Phage DNA was purified from individual bacterial colonies obtained from the second and the third round of in vivo panning and the DNA sequences encoding the peptides expressed by selected phage were determined (see Koivunen et al., supra, 1994b).
The same methodology used to isolate phage expressing brain homing peptides was used to isolate phage expressing peptides that home to kidney. In these experiments, brain was used as the control organ. A mixture of the CX5C (SEQ ID NO: 36) and the CX6C (SEQ ID NO: 37) libraries was administered as described above. Homing of phage to the kidney was obtained and an approximately 3x to 7x enrichment of phage homing to kidney was observed following a second round of in vivo panning.
The amino acid sequences were determined for the inserts in 48 cloned phage that homed to kidney. The peptides expressed by these phage were represented by two predominant sequences, CLPVASC (SEQ ID NO: 21; 46% of the clones sequenced) and CGAREMC (SEQ ID NO: 22; 17% of the clones; see Table 2). In addition, the peptide CKGRSSAC (SEQ ID NO: 23) appeared three times and three other peptides were present twice each.

brain = assay: In vivo panning of phage peptide display libraries, brain as the selected organ (kidney control); set-up: species or system mice; conditions: phage recovered from brain; for (% PHAGE): % of the 73 clones sequenced; for # PHAGE DISPLAYING SAME A.A. SEQUENCE: second and third rounds of in vivo panning, 73 cloned phage sequenced
Method: Phage display libraries were constructed using the fuse 5 vector as described by Koivunen et al. (supra, 1995; see, also, Koivunen et al. Meth. Enzymol. 245:346-369 (1994b), which is incorporated herein by reference). Six libraries encoding peptides designated CX5C (SEQ ID NO: 36), CX6C (SEQ ID NO: 37), CX7C (SEQ ID NO: 38), CX9 (SEQ ID NO: 39), X2CX14CX2 (SEQ ID NO: 40) and X2CX18 (SEQ ID NO: 41) were prepared, where "C" indicates cysteine and "XN" indicates the given number of individually selected amino acids. These libraries can display cyclic peptides when at least two cysteine residues are present in the peptide.
Oligonucleotides were constructed such that "C" was encoded by the codon TGT and "XN" was encoded by NNK, where "N" is equal molar mixtures of A, C, G and T, and where "K" is equal molar mixtures of G and T. Thus, the peptide represented by CX5C (SEQ ID NO: 36) can be represented by an oligonucleotide having the sequence TGT(NNK)5TGT (SEQ ID NO: 42). Oligonucleotides were made double stranded by 3 cycles of PCR amplification, purified and ligated to the nucleic acid encoding the gene III protein in the fuse 5 vector such that, upon expression, the peptide is present as a fusion protein at the N-terminus of the gene III protein.
The vectors were transfected by electroporation into MC1061 cells. Bacteria were cultured for 24 hr in the presence of 20 µg/ml tetracycline, then phage were collected from the supernatant by precipitation twice using polyethylene glycol. Each library contained about 5 x 10^9 to 5 x 10^14 transducing units (TU; individual recombinant phage).
as §1, §2, §3
Three rounds of in vivo panning in mice were performed. Kidney was used as a control organ. Mice were injected with two different mixtures of phage libraries. The first mixture contained libraries encoding CX9 (SEQ ID NO: 39), CX5C (SEQ ID NO: 36), CX6C (SEQ ID NO: 37) and CX7C (SEQ ID NO: 38) peptides (CX5-7/CX9 mixture; SEQ ID NOS: 36-39). The second mixture contained libraries encoding X2CX14CX2 (SEQ ID NO: 40) and X2CX18 (SEQ ID NO: 41) peptides (X2CX18/X2CX14CX2 mixture; SEQ ID NOS: 40 and 41).
The phage library mixtures were administered to mice via tail vein injection. Phage input was […] of the CX5-7/CX9 (SEQ ID NOS: 36-39) mixture or 1 x 10^14 TU of the X2CX18/X2CX14CX2 (SEQ ID NOS: 40 and 41) mixture. […]

Row | Substance | (% PHAGE) (kidney) [%] | # PHAGE DISPLAYING SAME A.A. SEQUENCE (kidney) | (% PHAGE) (brain) [%] | # PHAGE DISPLAYING SAME A.A. SEQUENCE (brain) | other results
1 | WGTGLC (also: displayed on phage) [peptide from phage recovered from mouse B16B15b melanoma] | – | – | – | – | # clones [1]: 22; % of total phage [1]: 25%
2 | CVAWLNC (displayed on phage) [peptide from phage recovered from kidney] | 2.1 | 1 | – | – | –
3 | CKLMGEC (displayed on phage) [peptide from phage recovered from kidney] | 2.1 | 1 | – | – | –
4 | CRTGTLFC (displayed on phage) [peptide from phage recovered from brain] | – | – | 1.4 | 1 | –
5 | CANAQSHC (displayed on phage) [peptide from phage recovered from brain] | – | – | 1.4 | 1 | –
6 | CVGECGGC (displayed on phage) [peptide from phage recovered from kidney] | 2.1 | 1 | – | – | –
7 | CLMGVHC (displayed on phage) [peptide from phage recovered from kidney] | 2.1 | 1 | – | – | –
8 | CNSRLQLRC (displayed on phage) [peptide from phage recovered from brain] | – | – | 5.5 | 4 | –
9 | CLGRSSVC (displayed on phage) [peptide from phage recovered from kidney] | 4.2 | 2 | – | – | –
10 | CIEGVLGGC (cysteine pairing not given here; also: displayed on phage) [peptide from phage recovered from mouse B16B15b melanoma] | – | – | – | – | # clones [1]: 2; % of total phage [1]: 2%
11 | CGRSLDAC (displayed on phage) [peptide from phage recovered from brain] | – | – | 1.4 | 1 | –
12 | CRRFQDC (displayed on phage) [peptide from phage recovered from kidney] | 2.1 | 1 | – | – | –
13 | CFVGHDLC (displayed on phage) [peptide from phage recovered from kidney] | 2.1 | 1 | – | – | –
14 | CKDWGRIC (displayed on phage) [peptide from phage recovered from brain] | – | – | 2.8 | 2 | –
15 | CSSTMRC (cysteine pairing not given here; also: displayed on phage) [peptide from phage recovered from mouse B16B15b melanoma] | – | – | – | – | # clones [1]: 2; % of total phage [1]: 2%
16 | CRCLNVC (displayed on phage) [peptide from phage recovered from kidney] | 2.1 | 1 | – | – | –
17 | CLDWGRIC (displayed on phage) [peptide from phage recovered from brain] | – | – | 2.8 | 2 | –
18 | CGNPSYRC (displayed on phage) [peptide from phage recovered from brain] | – | – | 1.4 | 1 | –
19 | CTRITESC (displayed on phage) [peptide from phage recovered from brain] | – | – | 2.8 | 2 | –
20 | CGVRLGC (displayed on phage) [peptide from phage recovered from brain] | – | – | 4.1 | 3 | –
21 | CTSPGGSC (displayed on phage) [peptide from phage recovered from kidney] | 4.2 | 2 | – | – | –
22 | CETLPAC (displayed on phage) [peptide from phage recovered from brain] | – | – | 1.4 | 1 | –
23 | CVLRGGRC (displayed on phage) [peptide from phage recovered from brain] | – | – | 6.8 | 5 | –
24 | CWARAQGC (displayed on phage) [peptide from phage recovered from kidney] | 4.2 | 2 | – | – | –
25 | CKLLSGVC (displayed on phage) [peptide from phage recovered from kidney] | 2.1 | 1 | – | – | –
26 | YPCGGEAVAGVSSVRTMCSE (displayed on phage) [peptide from phage recovered from brain] | – | – | 1.4 | 1 | –
27 | LNCDYQGTNPATSVSVPCTV (displayed on phage) [peptide from phage recovered from brain] | – | – | 1.4 | 1 | –
28 | CMGRWRLC (displayed on phage) [peptide from phage recovered from kidney] | 2.1 | 1 | – | – | –
29 | CSVANSC (cysteine pairing not given here; also: displayed on phage) [peptide from phage recovered from mouse B16B15b melanoma] | – | – | – | – | # clones [1]: 3; % of total phage [1]: 3%
30 | CRHWFDVVC (displayed on phage) [peptide from phage recovered from brain] | – | – | 1.4 | 1 | –
